Ki data for 4 compounds are collected here from patent US8669272B2, “2,5-disubstituted piperidine orexin receptor antagonists” (Merck Sharp & Dohme Corp., priority 2008, dated 2014).

One assay addresses T1, orexin-1 receptor (OX1R) (Homo sapiens, UniProt O43613).
T1 construct: expressed in transfected cells; host or cells: CHO cells (membranes)
T1 sequence (O43613 1-425): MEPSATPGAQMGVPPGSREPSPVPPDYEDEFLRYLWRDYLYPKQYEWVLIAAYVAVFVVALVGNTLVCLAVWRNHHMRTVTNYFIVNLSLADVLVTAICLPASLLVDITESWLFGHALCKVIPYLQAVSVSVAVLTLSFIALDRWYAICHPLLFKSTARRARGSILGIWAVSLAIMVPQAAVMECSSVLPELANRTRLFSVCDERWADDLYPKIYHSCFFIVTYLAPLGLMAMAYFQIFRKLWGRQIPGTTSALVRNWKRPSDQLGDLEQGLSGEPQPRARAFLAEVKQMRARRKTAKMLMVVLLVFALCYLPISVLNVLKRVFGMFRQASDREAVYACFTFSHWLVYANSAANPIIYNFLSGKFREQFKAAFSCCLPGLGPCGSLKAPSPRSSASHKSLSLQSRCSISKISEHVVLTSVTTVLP
The assay can be described thus: radioligand binding assay, membranes from CHO cells expressing OX1. As to conditions: CHO cell membranes. As for the experimental part:
(§1) The utility of the compounds in accordance with the present invention as orexin receptor OX1R and/or OX2R antagonists may be readily determined without undue experimentation by methodology well known in the art, including the “FLIPR Ca^2+ Flux Assay” (Okumura et al., Biochem. Biophys. Res. Comm. 280:976-981, 2001). In a typical experiment the OX1 and OX2 receptor antagonistic activity of the compounds of the present invention was determined in accordance with the following experimental method. For intracellular calcium measurements, Chinese hamster ovary (CHO) cells expressing the rat OX1 receptor or the human OX2 receptor, are grown in Iscove's modified DMEM containing 2 mM L-glutamine, […], 1% hypoxanthine-thymidine supplement, 100 U/ml penicillin, 100 ug/ml streptomycin and 10% heat-inactivated fetal calf serum (FCS). The cells are seeded at 20,000 cells/well into Becton-Dickinson black 384-well clear bottom sterile plates coated with poly-D-lysine. All reagents were from GIBCO-Invitrogen Corp. The seeded plates are incubated overnight at 37° C. and 5% CO2. Ala-6,12 human orexin-A as the agonist is prepared as a 1 mM stock solution in 1% bovine serum albumin (BSA) and diluted in assay buffer (HBSS containing 20 mM HEPES, 0.1% BSA and 2.5 mM probenecid, pH7.4) for use in the assay at a final concentration of 70 pM. Test compounds are prepared as 10 mM stock solution in DMSO, then diluted in 384-well plates, first in DMSO, then assay buffer. On the day of the assay, cells are washed 3 times with 100 ul assay buffer and then incubated for 60 min (37° C., 5% CO2) in 60 ul assay buffer containing 1 uM Fluo-4AM ester, 0.02% pluronic acid, and 1% BSA. The dye loading solution is then aspirated and cells are washed 3 times with 100 ul assay buffer. 30 ul of that same buffer is left in each well. Within the Fluorescent Imaging Plate Reader (FLIPR, Molecular Devices), test compounds are added to the plate in a volume of 25 ul, incubated for 5 min and finally 25 ul of agonist is added. Fluorescence is measured for each well at 1 second intervals for 5 minutes and the height of each fluorescence peak is compared to the height of the fluorescence peak induced by 70 pM Ala-6,12 orexin-A with buffer in place of antagonist. […] Alternatively, compound potency can be assessed by a radioligand binding assay (described in Bergman et. al. Bioorg. Med. Chem. Lett. 2008, 18, 1425-1430) in which the inhibition constant (Ki) is determined in membranes prepared from CHO cells expressing either the orexin-1 (OX1) or orexin-2 (OX2) receptor. The intrinsic orexin receptor antagonist activity of a compound which may be used in the present invention may be determined by these assays.

The next assay deals with T2, orexin-2 receptor (OX2R) (Homo sapiens, UniProt O43614).
T2 construct: expressed in transfected cells; host or cells: CHO cells (membranes)
T2 sequence (O43614 1-444): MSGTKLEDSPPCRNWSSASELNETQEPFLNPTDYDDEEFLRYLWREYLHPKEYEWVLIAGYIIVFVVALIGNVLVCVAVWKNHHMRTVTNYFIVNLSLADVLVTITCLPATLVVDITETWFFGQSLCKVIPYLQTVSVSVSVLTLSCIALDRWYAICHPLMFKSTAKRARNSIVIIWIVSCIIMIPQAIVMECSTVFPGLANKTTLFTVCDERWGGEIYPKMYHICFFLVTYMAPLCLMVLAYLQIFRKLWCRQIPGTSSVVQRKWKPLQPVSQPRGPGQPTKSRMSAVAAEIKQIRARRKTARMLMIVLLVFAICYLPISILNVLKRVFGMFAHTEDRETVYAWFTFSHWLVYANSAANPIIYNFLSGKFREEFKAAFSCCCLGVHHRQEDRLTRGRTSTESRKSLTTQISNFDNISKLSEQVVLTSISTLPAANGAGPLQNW
In words: radioligand binding assay, membranes from CHO cells expressing OX2. Particulars: CHO cell membranes. The method, then:
as §1

As usually defined, the Ki is the dissociation constant of the complex between target and ligand, obtained from inhibition or displacement. Lower therefore signals higher affinity. As for `Cc1ccc(-n2nccn2)c(C(=O)N2C[C@H](CC(=O)N3CCCc4ccccc43)CC[C@H]2C)c1` [C-6, 1-({(3S,6R)-6-methyl-1-[5-methyl-2-(2H-1,2,3-triazol-2-yl)benzoyl]piperidin-3-yl}acetyl)-1,2,3,4-tetrahydroquinoline], the values for the inhibition constant Ki at orexin-1 receptor (OX1R) and at orexin-2 receptor (OX2R) were 95 nM and 6.9 nM, respectively.
As for `Cc1ccc(-n2nccn2)c(C(=O)N2C[C@H](COc3nccc4ccccc34)CC[C@H]2C)c1` [A-15, 1-({(3R,6R)-6-methyl-1-[5-methyl-2-(2H-1,2,3-triazol-2-yl)benzoyl]piperidine-3-yl}methoxy)isoquinoline], the Ki is 2.7 nM on orexin-1 receptor (OX1R) and 0.2 nM at orexin-2 receptor (OX2R).
Turning to `Cc1ccc(-n2nccn2)c(C(=O)N2C[C@H](Cc3nc4ccccc4n3C)CC[C@H]2C)c1` [C-2, 1-methyl-2-({(3S,6R)-6-methyl-1-[5-methyl-2-(2H-1,2,3-triazol-2-yl)benzoyl]piperidin-3-yl}methyl)-1H-benzimidazole], the Ki turned out to be 4.5 nM on orexin-1 receptor (OX1R) and 4.6 nM at orexin-2 receptor (OX2R).
On the same counts, the results for `Cc1ccc(-n2nccn2)c(C(=O)N2C[C@H](COc3cccc(F)c3)CC[C@H]2C)c1` [A-9, (2R,5R)-5-[(3-fluorophenoxy)methyl]-2-methyl-1-[5-methyl-2-(2H-1,2,3-triazol-2-yl)benzoyl]piperidine] are 0.86 nM and 0.36 nM.
